Experiment [1] has as its system Pseudocercosporella herpotrichoides. In words: Activity against wheat eyespot in-vitro (PHI). It is filed as cell-based. Conditions: 10 ppm, 10 days, 20° C., mycelial growth. In outline:
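Mycelial growth was scored after 10 days at 20 °C against untreated or diluent controls. The broth was half-strength potato dextrose, holding 10 ppm test compound (from acetone) and 5×10^4 fragments/ml of the eyespot fungus.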

For a further experiment, the system named is Phytophthora infestans. Format: in vivo. Particulars: tomato, direct protectant foliar spray.
The next experiment has as its system Leptosphaeria nodorum. The experiment in a line: Activity against wheat leafspot (LN). It is filed as in vivo. Conditions: direct therapeutic foliar spray, 600 ppm, 6-8 days. In outline: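 Therapeutic foliar spray: compound at 600 ppm applied to single-leaf wheat (cv Norman) 24 h after inoculation with 1.5×10^6 conidia/ml. Disease control scored after 6-8 days at 22° C and 70% humidity as lesions per leaf versus untreated or diluent-sprayed controls.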

The subject of another experiment is Plasmopara viticola. In words: Antisporulant activity against vine downy mildew (PVA). It is filed as in vivo. Conditions: vine leaves, antisporulant foliar spray, 600 ppm, 750 l/ha. Put shortly:
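Cabernet Sauvignon vines (~8 cm) inoculated on lower leaf surfaces with 5×10^4 zoosporangia/ml, held 24 h at 21° C high humidity then 24 h glasshouse. Infected leaves sprayed underside with 600 ppm compound in 1:1 water/acetone, 0.04% Tween 20, 750 l/ha; 96 h glasshouse, 24 h humidity. Sporulating leaf area rated versus control.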

For the next experiment, the system named is Alternaria solani. The experiment in a line: Activity against tomato early blight (AS). Conditions: Table VI; tomato seedlings, contact prophylactic foliar spray, 4 days. It is filed as in vivo. Put shortly:
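Plants were challenged with A. solani conidia (10^4 spores/ml) 24 h after a protective foliar spray of compound in 50:50 acetone/water plus 0.04% Tween 20. Held humid at 21° C for 4 days, then percent leaf area with lesions was scored as a rating relative to controls.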

A further experiment relates to Venturia inaequalis. The experiment in a line: Activity against apple scab in-vitro (VII). Format: cell-based. Conditions: 10 ppm, 10 days, 20° C., mycelial growth. Put shortly: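 V. inaequalis propagules (5×10^4/ml, malt agar-grown) were exposed in half-strength PDB to 10 ppm final test compound delivered in acetone. Growth was scored after incubation for 10 days at 20° C, as a rating relative to untreated or diluent-sprayed controls.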

Another experiment relates to Rhizoctonia solani. In words: Activity against Rhizoctonia in-vitro (RSI). Conditions: 10 ppm, 10 days, 20° C., mycelial growth. It is filed as cell-based. In outline: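 Compound at a final 10 ppm (acetone vehicle) in half-strength PDB, inoculated with 5×10^4 fragments/ml of shaken-culture R. solani mycelium. After incubation at 20° C for 10 days, growth scored as a rating versus untreated or diluent-treated controls.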

A further experiment concerns Botrytis cinerea. In words: Direct protectant activity against broad bean grey mould (BCB). Particulars: direct protectant foliar spray, 600 ppm, 4 days. It is filed as in vivo. Put shortly: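 Protectant foliar test: lesion coverage assessed 4 days after inoculation and rated relative to untreated or diluent-sprayed plants. Compound applied at 600 ppm to cv The Sutton leaves 24 h before 10^6 conidia/ml suspension; incubation at 22 °C in high humidity.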

The next experiment has as its system Pyricularia oryzae. It is filed as in vivo. Particulars: rice seedlings, direct therapeutic foliar spray, 600 ppm, 4-5 days.
The subject of experiment [2] is Erysiphe graminis f.sp. hordei. In words: Activity against barley powdery mildew, direct therapeutic (EGT). Format: in vivo. Conditions: direct therapeutic foliar spray, 600 ppm, up to 7 days. In outline:
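A curative spray at 600 ppm was applied to single-leaf Golden Promise barley inoculated with powdery mildew conidia the previous day. After up to 7 days at 18 °C and 40% humidity, disease control was rated from percent leaf area sporulating relative to untreated or diluent-sprayed controls.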

Experiment [3] concerns Erysiphe graminis f.sp. hordei. The experiment in a line: Direct protectant activity against barley powdery mildew (EGP). Format: in vivo. Conditions: direct protectant foliar spray, 8 days. Put shortly:
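Rating reflects percentage of leaf area with sporulation compared with untreated or diluent-sprayed controls. Protectant spray was applied to single-leaf barley (cv Golden Promise) 24 h before conidia inoculation. Plants were kept at 18 °C and 40% RH throughout, with 8 days of disease development.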

We go through 7 compounds from patent publication US5591741A, “Fungicidal spiroheterocyclic derivatives” (American Cyanamid Company, priority 1993, dated 1997).

SMILES strings stand for the structures.

For `CC1CCN(C2COC3(CCC(C(C)(C)C4CCCCC4)CC3)C2)CC1` (centres unmarked) [Compound 141], the “disease control rating PHI” value in experiment [1] is 2 (greater than 80% disease control). Besides, the “disease control rating PIP” value in the experiment on Phytophthora infestans was 0 (less than 50% disease control). The “disease control rating LN” value with Leptosphaeria nodorum is given as 1 (about 50-80% disease control). In the experiment with Plasmopara viticola, the “disease control rating PVA” value is 0 (less than 50% disease control). For the same compound, the “disease control rating AS” value with Alternaria solani is given as 0 (less than 50% disease control). For the same compound, the “disease control rating VII” value in the experiment with Venturia inaequalis is 2 (greater than 80% disease control). Also, the “disease control rating RSI” value in the experiment on Rhizoctonia solani was 2 (greater than 80% disease control). In the experiment with Botrytis cinerea, the “disease control rating BCB” value is given as 0 (less than 50% disease control). For the same compound, the “disease control rating PO” value with Pyricularia oryzae is reported as 0 (less than 50% disease control). For the same compound, the “disease control rating EGT” value in [2] was 2 (greater than 80% disease control). The “disease control rating EGP” value in experiment [3] was 2 (greater than 80% disease control).

Take `CC(C)(C1CCCCC1)C1CCC2(CC1)CC(NC1CCCCC1)CO2` (centres unmarked) [Compound 142]: the “disease control rating PHI” value in [1] was 2 (greater than 80% disease control). Besides, the “disease control rating PIP” value with Phytophthora infestans is listed as 1 (about 50-80% disease control). Further, in the experiment with Leptosphaeria nodorum, the “disease control rating LN” value is on record as 0 (less than 50% disease control). Besides, in the experiment with Plasmopara viticola, the “disease control rating PVA” value is listed as 0 (less than 50% disease control). In addition, the “disease control rating AS” value with Alternaria solani is 0 (less than 50% disease control). For the same compound, the “disease control rating VII” value in the experiment with Venturia inaequalis is given as 2 (greater than 80% disease control). Also, the “disease control rating RSI” value with Rhizoctonia solani is given as 2 (greater than 80% disease control). For the same compound, in the experiment with Botrytis cinerea, the “disease control rating BCB” value was 0 (less than 50% disease control). Further, in the experiment with Pyricularia oryzae, the “disease control rating PO” value is 0 (less than 50% disease control). Moreover, the “disease control rating EGT” value in experiment [2] is listed as 2 (greater than 80% disease control). In addition, in experiment [3], the “disease control rating EGP” value is reported as 2 (greater than 80% disease control).

Turning to `CC(C)CN(CC(C)C)C1COC2(CCC(C(C)(C)C)CC2)C1` (centres unmarked) [Compound 143], in [1], the “disease control rating PHI” value was 0 (less than 50% disease control). Also, the “disease control rating PIP” value in the experiment on Phytophthora infestans is recorded as 0 (less than 50% disease control). For the same compound, the “disease control rating LN” value in the experiment with Leptosphaeria nodorum was 0 (less than 50% disease control). Moreover, in the experiment on Plasmopara viticola, the “disease control rating PVA” value was 0 (less than 50% disease control). Also, the “disease control rating AS” value in the experiment on Alternaria solani is reported as 0 (less than 50% disease control). In addition, the “disease control rating VII” value in the experiment with Venturia inaequalis was 0 (less than 50% disease control). Moreover, the “disease control rating RSI” value in the experiment on Rhizoctonia solani is 0 (less than 50% disease control). Further, in the experiment on Botrytis cinerea, the “disease control rating BCB” value is 0 (less than 50% disease control). The “disease control rating PO” value in the experiment on Pyricularia oryzae is given as 0 (less than 50% disease control). Moreover, the “disease control rating EGT” value in [2] is recorded as 2 (greater than 80% disease control). The “disease control rating EGP” value in experiment [3] was 2 (greater than 80% disease control).

`CC(C)(C)C1CCC2(CC1)CC(CN)CO2` (centres unmarked) [Compound 181, 8-t-Butyl-3-aminomethyl-1-oxaspiro(4,5)decane]: in experiment [1], the “disease control rating PHI” value is given as 0 (less than 50% disease control). For the same compound, the “disease control rating PIP” value in the experiment on Phytophthora infestans is 2 (greater than 80% disease control). Besides, the “disease control rating LN” value in the experiment on Leptosphaeria nodorum is reported as 0 (less than 50% disease control). Moreover, the “disease control rating PVA” value with Plasmopara viticola is on record as 0 (less than 50% disease control). Also, the “disease control rating AS” value in the experiment on Alternaria solani was 0 (less than 50% disease control). Besides, in the experiment with Venturia inaequalis, the “disease control rating VII” value is given as 0 (less than 50% disease control). Moreover, the “disease control rating RSI” value in the experiment with Rhizoctonia solani is 0 (less than 50% disease control). For the same compound, the “disease control rating BCB” value in the experiment on Botrytis cinerea was 0 (less than 50% disease control). In addition, the “disease control rating PO” value in the experiment on Pyricularia oryzae was 0 (less than 50% disease control). Moreover, in [2], the “disease control rating EGT” value is on record as 2 (greater than 80% disease control). Besides, the “disease control rating EGP” value in experiment [3] is on record as 2 (greater than 80% disease control).

In the case of `CC(C)(C)C1CCC2(CC1)CC(CNC1CCCCC1)CO2` (centres unmarked) [Compound 182, 8-t-Butyl-3-cyclohexylaminomethyl-1-oxaspiro(4,5)decane], in experiment [1], the “disease control rating PHI” value is on record as 1 (about 50-80% disease control). Moreover, in the experiment with Phytophthora infestans, the “disease control rating PIP” value was 0 (less than 50% disease control). The “disease control rating LN” value in the experiment with Leptosphaeria nodorum is given as 1 (about 50-80% disease control). In addition, the “disease control rating PVA” value in the experiment with Plasmopara viticola was 0 (less than 50% disease control). Moreover, the “disease control rating AS” value in the experiment with Alternaria solani is 0 (less than 50% disease control). In the experiment on Venturia inaequalis, the “disease control rating VII” value is 2 (greater than 80% disease control). Also, the “disease control rating RSI” value in the experiment on Rhizoctonia solani is reported as 2 (greater than 80% disease control). The “disease control rating BCB” value with Botrytis cinerea is recorded as 1 (about 50-80% disease control). Besides, the “disease control rating PO” value with Pyricularia oryzae is listed as 0 (less than 50% disease control). The “disease control rating EGT” value in experiment [2] is given as 2 (greater than 80% disease control). Also, the “disease control rating EGP” value in experiment [3] was 2 (greater than 80% disease control).

On to `CCCCCCCCNCC1COC2(CCC(C(C)(C)C)CC2)C1` (centres unmarked) [Compound 183, 8-t-butyl-3-n-octylaminomethyl-1-oxaspiro(4,5)-decane], for which the “disease control rating PHI” value in experiment [1] is 1 (about 50-80% disease control). Besides, in the experiment on Phytophthora infestans, the “disease control rating PIP” value was 1 (about 50-80% disease control). Besides, in the experiment with Leptosphaeria nodorum, the “disease control rating LN” value was 0 (less than 50% disease control). Also, the “disease control rating PVA” value in the experiment with Plasmopara viticola is 0 (less than 50% disease control). In the experiment on Alternaria solani, the “disease control rating AS” value is reported as 0 (less than 50% disease control). Also, the “disease control rating VII” value in the experiment with Venturia inaequalis is given as 2 (greater than 80% disease control). Further, the “disease control rating RSI” value in the experiment with Rhizoctonia solani is 2 (greater than 80% disease control). In addition, the “disease control rating BCB” value in the experiment with Botrytis cinerea was 0 (less than 50% disease control). The “disease control rating PO” value with Pyricularia oryzae is 0 (less than 50% disease control). The “disease control rating EGT” value in [2] was 2 (greater than 80% disease control). The “disease control rating EGP” value in experiment [3] is 2 (greater than 80% disease control).

For the compound `CCCCCCNCC1COC2(CCC(C(C)(C)C)CC2)C1` (centres unmarked) [Compound 184, 8-t-butyl-3-n-hexylaminomethyl-1-oxaspiro(4,5)decane], the “disease control rating PHI” value in experiment [1] is given as 1 (about 50-80% disease control). In the experiment on Phytophthora infestans, the “disease control rating PIP” value is 0 (less than 50% disease control). Besides, the “disease control rating LN” value in the experiment with Leptosphaeria nodorum is given as 0 (less than 50% disease control). Further, the “disease control rating PVA” value in the experiment on Plasmopara viticola is reported as 0 (less than 50% disease control). Also, the “disease control rating AS” value in the experiment with Alternaria solani is on record as 0 (less than 50% disease control). Besides, in the experiment on Venturia inaequalis, the “disease control rating VII” value is 2 (greater than 80% disease control). Besides, the “disease control rating RSI” value in the experiment with Rhizoctonia solani is on record as 2 (greater than 80% disease control). Besides, the “disease control rating BCB” value in the experiment with Botrytis cinerea is listed as 2 (greater than 80% disease control). Besides, the “disease control rating PO” value in the experiment on Pyricularia oryzae was 0 (less than 50% disease control). Further, the “disease control rating EGT” value in experiment [2] is recorded as 2 (greater than 80% disease control). Further, in experiment [3], the “disease control rating EGP” value is 2 (greater than 80% disease control).
